Type in all cases: cell-based
One test deals with T1, Human LPA1 (Homo sapiens, UniProt Q92633).
T1 construct: the full-length cDNA for human LPA1 was obtained by PCR of the reverse transcription reaction; expressed in transfected cells
Put plainly: LPA1 calcium flux assay. As to conditions: CHO cells expressing human LPA1, 10 nM LPA; read-out: HLPA1 Ca Flux IC50. On the procedure:
A 1.1 kb cDNA encoding the human LPA1 receptor was cloned from human lung. Human lung RNA (Clontech Laboratories, Inc. USA) was reverse transcribed using the RETROscript kit (Ambion, Inc.) and the full-length cDNA for human LPA1 was obtained by PCR of the reverse transcription reaction. The nucleotide sequence of the cloned human LPA1 was determined by sequencing and confirmed to be identical to the published human LPA1 sequence (An et al. Biochem. Biophys. Res. Commun. 231:619 (1997). The cDNA was cloned into the pcDNA5/FRT expression plasmid and transfected in CHO cells using lipofectamine 2000 (Invitrogen Corp., USA). Clones stably expressing human LPA1 were selected using hygromycin and identified as cells that show Ca-influx in response to LPA.
(§1) Human LPA1 or LPA3 expressing CHO cells are seeded at 20,000-45,000 cells per well in a 96-well poly-D-lysine coated plate one or two days before the assay. Prior to the assay, the cells are washed once with PBS and then cultured in serum-free media overnight. On the day of the assay, a calcium indicator dye (Calcium 4, Molecular Devices) in assay buffer (HBSS with Ca^2+and Mg^2+ and containing 20 mM Hepes and 0.3% fatty-acid free human serum albumin) is added to each well and incubation continued for 1 hour at 37° C. 10 μl of test compounds in 2.5% DMSO are added to the cells and incubation continued at room temperature for 30 minutes. Cells are the stimulated by the addition of 10 nM LPA and intracellular Ca^2+ measured using the Flexstation 3 (Molecular Devices). IC50s are determined using Graphpad prism analysis of drug titration curves.
For orientation: A change in cytosolic calcium serves as a functional read-out for many receptors and channels.

Another test addresses T2, Human LPA3 (Homo sapiens, UniProt Q9UBY5).
T2 construct: The full-length cDNA fragment for human LPA3 was obtained by PCR from the vector; expressed in transfected cells; cDNA from the Missouri S&T cDNA Resource Center
T2 sequence (Q9UBY5 1-353): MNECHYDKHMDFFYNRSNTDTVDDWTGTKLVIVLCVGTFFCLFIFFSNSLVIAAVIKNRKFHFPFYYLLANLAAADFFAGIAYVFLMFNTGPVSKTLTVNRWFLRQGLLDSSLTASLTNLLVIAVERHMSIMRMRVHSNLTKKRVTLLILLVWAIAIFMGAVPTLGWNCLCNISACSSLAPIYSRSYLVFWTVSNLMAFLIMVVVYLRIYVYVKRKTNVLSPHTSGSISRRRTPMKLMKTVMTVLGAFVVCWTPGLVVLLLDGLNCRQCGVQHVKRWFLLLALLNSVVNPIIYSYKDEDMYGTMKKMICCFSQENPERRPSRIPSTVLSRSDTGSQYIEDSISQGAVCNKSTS
Put plainly: LPA3 calcium flux assay. As to conditions: CHO cells expressing human LPA3, 10 nM LPA; read-out: HLPA3 Ca Flux IC50. On the procedure:
A vector containing the human LPA3 receptor cDNA was obtained from the Missouri S&T cDNA Resource Center (www.cdna.org). The full-length cDNA fragment for human LPA3 was obtained by PCR from the vector. The nucleotide sequence of the cloned human LPA3 was determined by sequencing and confirmed to be identical to the published human LPA3 sequence (NCBI accession number NM_012152). The cDNA was cloned into the pcDNA5/FRT expression plasmid and transfected in CHO cells using lipofectamine 2000 (Invitrogen Corp., USA). Clones stably expressing human LPA3 were selected using hygromycin and identified as cells that show Ca-influx in response to LPA.
as §1

Test [1] has as its system human A2058 melanoma cells. Kind of test: LPA1 chemotaxis assay. Particulars: 100 nM LPA, read-out: inhibition of LPA-driven chemotaxis IC50. On the procedure:
Chemotaxis of the A2058 human melanoma cells was measured using the Neuroprobe ChemoTx® System plates (8 μM pore size, 5.7 mm diameter sites). The filter sites were coated with 0.001% fibronectin (Sigma) in 20 mM Hepes, pH 7.4 and allowed to dry. A2058 cells were serum-starved for 24 hours, then harvested with Cell Stripper and resuspended in DMEM containing 0.1% fatty-acid-free bovine serum albumin (BSA) to a concentration of 1×10^6/ml. Cells were mixed with an equal volume of test compound (2×) in DMEM containing 0.1% fatty-acid-free BSA and incubated at 37° C. for 15 minutes. LPA (100 nM in DMEM containing 0.1% fatty-acid-free BSA) or vehicle was added to each well of the lower chamber and 50 μl of the cell suspension/test compound mix was applied to the upper portion of the ChemoTx plate. Plates were incubated at 37° C. for three hours and then the cells removed from the upper portion by rinsing with PBS and scraping. The filter was dried then stained with HEMA 3 Staining System (Fisher Scientific). The absorbance of the filter was read at 590 nm and IC50s were determined using Symyx Assay Explorer.

17 compounds from patent US8273780B2, “Polycyclic antagonists of lysophosphatidic acid receptors” (Amira Pharmaceuticals, Inc., priority 2009, dated 2012) can be followed below.

SMILES strings stand for the structures.

As usually defined, the IC50 is the concentration that inhibits the measured activity by half.

T1 sequence (Q92633 whole entry): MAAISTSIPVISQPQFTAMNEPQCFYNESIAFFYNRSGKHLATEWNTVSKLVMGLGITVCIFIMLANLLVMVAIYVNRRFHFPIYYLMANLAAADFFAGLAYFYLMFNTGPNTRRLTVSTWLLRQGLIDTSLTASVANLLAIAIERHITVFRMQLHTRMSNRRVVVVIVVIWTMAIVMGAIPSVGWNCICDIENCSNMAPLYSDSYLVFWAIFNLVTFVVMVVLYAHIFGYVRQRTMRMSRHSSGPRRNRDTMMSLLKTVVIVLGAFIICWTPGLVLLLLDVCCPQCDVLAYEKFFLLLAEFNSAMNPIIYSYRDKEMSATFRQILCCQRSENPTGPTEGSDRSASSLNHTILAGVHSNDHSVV

For `Cc1noc(-c2ccc(-c3ccc(C4(C(=O)O)CC4)cc3)cc2)c1NC(=O)O[C@H](C)c1ccccc1Cl` [Compound 8, 1-(4′-{4-[(R)-1-(2-Chloro-phenyl)-ethoxycarbonylamino]-3-methyl-isoxazol-5-yl}-biphenyl-4-yl)-cyclopropanecarboxylic acid], the results for the IC50 (on Human LPA1; on Human LPA3; in test [1]) were less than 0.3 µM, 0.3 to 1 µM and less than 0.1 µM, respectively.

Regarding `Cc1ccc([C@@H](C)OC(=O)Nc2c(C)noc2-c2ccc(-c3ccc(C4(C(=O)O)CC4)cc3)cc2)cc1` [Compound 16, 1-{4′-[3-Methyl-4-((R)-1-p-tolyl-ethoxycarbonylamino)-isoxazol-5-yl]-biphenyl-4-yl}-cyclopropanecarboxylic acid], the IC50 was less than 0.3 µM at Human LPA1, 1 to 10 µM at Human LPA3 and less than 0.1 µM in test [1].

Turning to `Cc1noc(-c2ccc(-c3ccc(C4(c5nc(=O)o[nH]5)CC4)cc3)cc2)c1NC(=O)O[C@H](C)c1ccccc1` [Compound 38, (3-Methyl-5-{4′-[1-(5-oxo-2,5-dihydro-[1,2,4]oxadiazol-3-yl)-cyclopropyl]-biphenyl-4-yl}-isoxazol-4-yl)-carbamic acid (R)-1-phenyl-ethyl ester], the IC50 on Human LPA1 was less than 0.3 µM; on Human LPA3, 1 to 10 µM; in test [1], less than 0.1 µM.

For the compound `Cc1noc(-c2ccc(-c3ccc(C4(C(=O)NS(C)(=O)=O)CC4)cc3)cc2)c1NC(=O)O[C@H](C)c1ccccc1` [Compound 35, {5-[4′-(1-Methanesulfonylaminocarbonyl-cyclopropyl)-biphenyl-4-yl]-3-methyl-isoxazol-4-yl}-carbamic acid (R)-1-phenyl-ethyl ester], the IC50 on Human LPA1 is less than 0.3 µM; at Human LPA3, 1 to 10 µM; in test [1], less than 0.1 µM.

As for `Cc1cccc([C@@H](C)OC(=O)Nc2c(C)noc2-c2ccc(-c3ccc(C4(C(=O)O)CC4)cc3)cc2)c1` [Compound 17, 1-{4′-[3-Methyl-4-((R)-1-m-tolyl-ethoxycarbonylamino)-isoxazol-5-yl]-biphenyl-4-yl}-cyclopropanecarboxylic acid], the IC50 on Human LPA1 was less than 0.3 µM; on Human LPA3, 0.3 to 1 µM; in test [1] it was less than 0.1 µM.

In the case of `Cc1noc(-c2ccc(-c3ccc(C4(c5nnn[nH]5)CC4)cc3)cc2)c1NC(=O)O[C@H](C)c1ccccc1` [Compound 39, (3-Methyl-5-{4′-[1-(1H-tetrazol-5-yl)-cyclopropyl]-biphenyl-4-yl}-isoxazol-4-yl)-carbamic acid (R)-1-phenyl-ethyl ester], the IC50 at Human LPA1 was less than 0.3 µM; on Human LPA3, 1 to 10 µM; in test [1], less than 0.1 µM.

As for `CCc1noc(-c2ccc(-c3ccc(C4(C(=O)O)CC4)cc3)cc2)c1NC(=O)O[C@H](C)c1ccccc1` [Compound 29, 1-{4′-[3-Ethyl-4-((R)-1-phenyl-ethoxycarbonylamino)-isoxazol-5-yl]-biphenyl-4-yl}-cyclopropanecarboxylic acid], the IC50 at Human LPA1 is less than 0.3 µM; at Human LPA3, 0.3 to 1 µM; in test [1], less than 0.1 µM.

Regarding `Cc1noc(-c2ccc(-c3ccc(C4(C(=O)O)CC4)cc3)cc2)c1NC(=O)OCc1ccccc1` [Compound 4, 1-[4′-(4-Benzyloxycarbonylamino-3-methyl-isoxazol-5-yl)-biphenyl-4-yl]-cyclopropanecarboxylic acid], the values for the half-inhibitory concentration (IC50) (on Human LPA1; on Human LPA3; in test [1]) were less than 0.3 µM, more than 10 µM and less than 0.1 µM, respectively.

On to `Cc1noc(-c2ccc(-c3ccc(C4(C(=O)NS(=O)(=O)c5ccccc5)CC4)cc3)cc2)c1NC(=O)O[C@H](C)c1ccccc1` [Compound 36, {5-[4′-(1-Benzenesulfonylaminocarbonyl-cyclopropyl)-biphenyl-4-yl]-3-methyl-isoxazol-4-yl}-carbamic acid (R)-1-phenyl-ethyl ester], for which the IC50 at Human LPA1 is less than 0.3 µM; at Human LPA3 it was 1 to 10 µM; in test [1] it was less than 0.1 µM.

On to `Cc1noc(-c2ccc(-c3ccc(C4(C(=O)O)CCC4)cc3)cc2)c1NC(=O)O[C@H](C)c1ccccc1` [Compound 10, 1-{4′-[3-Methyl-4-((R)-1-phenyl-ethoxycarbonylamino)-isoxazol-5-yl]-biphenyl-4-yl}-cyclobutanecarboxylic acid], for which the IC50 is less than 0.3 µM at Human LPA1 and 1 to 10 µM at Human LPA3.

Regarding `C[C@@H](OC(=O)Nc1cnoc1-c1ccc(-c2ccc(C3(C(=O)O)CC3)cc2)cc1)c1ccccc1` [Compound 33, 1-{4′-[4-((R)-1-Phenyl-ethoxycarbonylamino)-isoxazol-5-yl]-biphenyl-4-yl}-cyclopropanecarboxylic acid], the results for the IC50 at Human LPA1 and at Human LPA3 were less than 0.3 µM and 1 to 10 µM, respectively.

For the compound `Cc1noc(-c2ccc(-c3ccc(C4(C(=O)O)CC4)cc3)cc2)c1NC(=O)OC(C)c1ccc(C(F)(F)F)cc1` (single isomer, unassigned) [Compound 14, 1-(4′-{3-Methyl-4-[1-(4-trifluoromethyl-phenyl)-ethoxycarbonylamino]-isoxazol-5-yl}-biphenyl-4-yl)-cyclopropanecarboxylic acid], the IC50 on Human LPA1 is less than 0.3 µM; on Human LPA3 it was 1 to 10 µM.

In the case of `CCc1noc(-c2ccc(-c3ccc(C4(C(=O)O)CC4)cc3)cc2)c1NC(=O)O[C@H](C)c1cccc(C(F)(F)F)c1` [Compound 30, 1-(4′-{3-Ethyl-4-[(R)-1-(3-trifluoromethyl-phenyl)-ethoxycarbonylamino]-isoxazol-5-yl}-biphenyl-4-yl)-cyclopropanecarboxylic acid], the IC50 on Human LPA1 and on Human LPA3 was less than 0.3 µM throughout.

With `Cc1noc(-c2ccc(-c3ccc(C4(C(=O)O)CC4)cc3)cc2)c1NC(=O)O[C@H](C)c1ccc(C#N)cc1` [Compound 18, 1-(4′-{4-[(R)-1-(4-Cyano-phenyl)-ethoxycarbonylamino]-3-methyl-isoxazol-5-yl}-biphenyl-4-yl)-cyclopropanecarboxylic acid], the IC50 on Human LPA1 is less than 0.3 µM; at Human LPA3 it was 1 to 10 µM.

As to `Cc1noc(-c2ccc(-c3ccc(C4(C(=O)O)CC4)cc3)cc2)c1NC(=O)OC(C)c1cccc(Cl)c1` (stereo not shown) [Compound 26, 1-(4′-{4-[1-(3-Chloro-phenyl)-ethoxycarbonylamino]-3-methyl-isoxazol-5-yl}-biphenyl-4-yl)-cyclopropanecarboxylic acid], the IC50 on Human LPA1 is less than 0.3 µM; on Human LPA3, 0.3 to 1 µM.

With `Cc1noc(-c2ccc(-c3ccc(C4(C(=O)O)CC4)cc3)cc2)c1NC(=O)OC(C)c1cccc(O)c1` (stereo not shown) [Compound 28, 1-(4′-{4-[1-(3-Hydroxy-phenyl)-ethoxycarbonylamino]-3-methyl-isoxazol-5-yl}-biphenyl-4-yl)-cyclopropanecarboxylic acid], the 50% inhibitory concentration (IC50) on Human LPA1 is less than 0.3 µM; at Human LPA3, more than 10 µM.

As for `Cc1ccccc1[C@@H](C)OC(=O)Nc1c(C)noc1-c1ccc(-c2ccc(C3(C(=O)O)CC3)cc2)cc1` [Compound 3, 1-{4′-[3-Methyl-4-((R)-1-o-tolyl-ethoxycarbonylamino)-isoxazol-5-yl]-biphenyl-4-yl}-cyclopropanecarboxylic acid], the IC50 at Human LPA1 is less than 0.3 µM; on Human LPA3, 0.3 to 1 µM.
